Measured values as given in patent publication US7786093B2, “Antistress agent” (Health Wellness Foods Corporation, priority 2004, dated 2010).

Tests used:
[1] = system: human mononuclear cells; experiment: IL-12 and IFN-γ production by mononuclear cells stimulated with heat-killed Lactobacillus plantarum L137, with DEX (ELISA); type: cell-based; details: for IFN-γ / IL-12: DEX 10 nM, Lactobacillus plantarum L137 1.0 μg/mL, 24 h
Method: (§1) A 2 μg/mL solution of a mouse anti-human IFN-γ antibody (manufactured by Endogen Inc.) prepared in a borate buffer solution was added in 50 μL per one well on a 96-well ELISA plate, and the plate was allowed to stand at 4° C. for a day to adhere the mouse anti-human IFN-γ antibody to each well. The above-mentioned culture supernatant was added in 50 μL per one well on the ELISA plate adhering the mouse anti-human IFN-γ antibody, and the plate was allowed to stand at room temperature for 90 minutes, thereby binding the IFN-γ in the culture supernatant to the mouse anti-human IFN-γ antibody adhered on the plate. After washing the plate, a 0.5 μg/mL solution of a biotin-labeled mouse anti-human IFN-γ antibody (manufactured by Endogen Inc.) prepared in a borate buffer solution was added thereto in 100 μL per one well to bind to the IFN-γ bound with the mouse anti-human IFN-γ antibody adhered on the plate. After washing out an unbound biotin-labeled mouse anti-human IFN-γ antibody, a solution of Avidin-HRP (manufactured by BD PharMingen Inc.) diluted 1000-fold in a borate buffer solution was added thereto in 100 μL per one well to bind to the biotin-labeled mouse anti-human IFN-γ antibody bound with the IFN-γ. After washing out an excess of Avidin-HRP, a phosphate buffer solution containing 0.006 V/V % of hydrogen peroxide and 0.1 W/V % of orthophenylenediamine was added thereto in 100 μL per one well to allow to react at room temperature for 15 minutes, and then the reaction was stopped by addition of 1.5 N sulfuric acid. The absorbance at a measurement wavelength of 492 nm and a reference wavelength of 630 nm was measured, and the concentration of the IFN-γ in the culture supernatant was obtained from a calibration curve prepared with a recombinant IFN-γ.
To the culture was added a cell stimulatory factor, which was heated dead body cells of Lactobacillus plantarum L137, so as to make a final concentration of […]. […] After completion of the incubation, the amounts of IL-12 and IFN-γ in the culture supernatant were measured by the ELISA.

[2] = system: BALB/c mice; experiment: Thymic and splenic atrophy due to DEX in mice; type: in vivo; details: control group (commercial feed), DEX 200 μg/mouse i.p., 24 h, female BALB/c mice
Method: Female BALB/c mice (8 weeks old) were divided into a group fed with a commercially available feed (control group) and a group fed with a commercially available feed mixed with a nigerooligosaccharide liquid sugar (Nigero S: content of nigerooligosaccharide: 30.8% by weight; manufactured by Takeda Food Products, Ltd.) at a concentration of 5% by weight (nigerooligosaccharide group). […] After 24 hours of the administration, the thymus and spleen of each mouse were excised, and the weights of the excised thymus and spleen were measured.

[3] = system: spleen cells of BALB/c mice; experiment: Final test: cytokine production of spleen cells from DEX-administered mice given nigerooligosaccharide in drinking water (ELISA); type: in vivo; details: DEX 60 μg/mouse i.p., ion-exchanged water as drinking water
Method: The prepared spleen cells were suspended in an RPMI 1640 culture medium so as to make a concentration of 5.0×10^6 cells/mL. This suspension was inoculated in 100 μL per one well on a 96-well tissue culture plate, and further a solution of a cell stimulatory factor, (1) PHA or (2) LPS, dissolved in the RPMI 1640 culture medium so as to make a final concentration of 12.5 μg/mL or 20 μg/mL, respectively, was added in 100 μL per one well. The spleen cells were cultivated at 37° C. for 24 hours in a 5% CO2 incubator, and the concentrations of cytokines in the culture supernatant, IL-4 and IFN-γ for the foregoing (1) or IL-10 and TNF-α for the foregoing (2), were measured by the ELISA. The amount of IFN-γ was measured on the basis of the ELISA described in Example 2. The amounts of IL-4, IL-10 and TNF-α were measured in a manner similar to the ELISA described in Example 2, except that the IFN-γ in the ELISA described in Example 2 was replaced by IL-4, IL-10 or TNF-α.
Next, in this test, to 14 weeks old, female BALB/c mice (6 mice per one group) was given as a drinking water ion-exchanged water or a 1 W/V % solution of a highly pure nigerooligosaccharide (19.8% by weight of nigerose, 36.5% by weight of a trisaccharide fraction mainly composed of nigerosylglucose, 40.2% by weight of a tetra- or more saccharide fraction mainly composed of nigerosylmaltose, and 3.5% by weight of glucose) in ion-exchanged water, and the mice were fed with a commercially available feed. […] After 24 hours of the administration, the spleen was excised, and spleen cells were cultivated at the same conditions as those in the preliminary test, and the concentrations of cytokines in the culture supernatant were measured.

[4] = system: human mononuclear cells; experiment: Suppression by nigerose of the DEX-induced decrease in growth of ConA- or PHA-stimulated human mononuclear cells (WST-1 absorbance); type: cell-based; details: for Absorbance (at 450 nm to 630 nm): DEX 10 nM, 24 h
Method: After a blood sample obtained from an adult was diluted two-fold with PBS, a Ficoll-Paque Plus solution (manufactured by Amersham Corporation) was added slowly to make double layers (blood diluted two-fold with PBS Ficoll-Paque Plus solution=4:3), which were centrifuged at the conditions of 400×g, 20° C. and 40 minutes. A mononuclear cell fraction present in the middle layer was recovered, and this mononuclear cell fraction washed twice with a 10-fold volume of PBS. The obtained mononuclear cells were suspended in an RPMI 1640 culture medium (manufactured by GIBCO BRL Corporation) to obtain a suspension of peripheral blood mononuclear cells. The number of cells in the suspension of peripheral blood mononuclear cells was measured with an automatic blood cell counter (manufactured by Sysmex Co., Ltd., Type CDA-500), and the mononuclear cells were suspended in RPMI 1640 culture medium so as to make the number of cells at a concentration of 2.0×10^6 cells/mL. This suspension was inoculated at 50 μL per one well on a 96-well tissue culture plate. To the inoculated suspension was added a solution of ConA or PHA in the RPMI 1640 culture medium in 50 μL per one well so as to make a final concentration of 2.0 μg/mL or 5.0 μg/mL, respectively. […] The mononuclear cells were incubated at 37° C. for 24 hours in a 5% CO2 incubator. At 4 hours before completion of the incubation, a solution of WST-1 (manufactured by Dojindo Laboratories Inc.), dissolved in 0.4 mM 1-methoxy PMS (manufactured by Dojindo Laboratories Inc.) to make a concentration of 10 mM, was added in 10 μL per one well, and the absorbance at a measurement wavelength of 450 nm and a reference wavelength of 630 nm was measured at the time of completion of the incubation.
WST-1, when taken into living cells, is reduced by a intracellular mitochondrial dehydrogenase to produce water-soluble formazan. Because the amount of the thus-produced formazan is proportional to the number of the living cells, the measurement of the absorbance of formazan can be made as an index of the cell growth.

[5] = system: human mononuclear cells; experiment: IFN-γ production by ConA- or PHA-stimulated mononuclear cells with DEX (ELISA); type: cell-based; details: DEX 10 nM, 24 h
Method: (a) In a manner similar to that in Example 1, mononuclear cells were prepared from blood of an adult, and the cultivation was initiated at a concentration of 5.0×10^5 mononuclear cells/mL. In a manner similar to that in Example 1, ConA or PHA as a cell stimulatory factor was added to the culture in 50 μL per one well so as to make a final concentration of 2.0 μg/mL or 5.0 μg/mL, respectively, thereby inducing cytokine production. […] After completion of the incubation, the amount of IFN-γ in the culture supernatant was measured by the ELISA.
The determination by the ELISA is shown in the following.
as §1

[6] = system: human mononuclear cells; experiment: Activated apoptosis of mononuclear cells (ssDNA Apoptosis ELISA kit); type: cell-based; details: for Absorbance (415 nm), degree of apoptosis: 24 h
Method: In a manner similar to that in Example 1, mononuclear cells were prepared from blood of an adult, and the cultivation was initiated at a concentration of 5.0×10^5 mononuclear cells/mL in a manner similar to that in Example 1. To the culture was added ConA or a hemolytic streptococcus preparation OK-432 (picibanil, manufactured by Chugai Pharmaceutical Co., Ltd.) as a cell stimulatory factor, so as to make a final concentrations of 2.0 μg/mL or 1.0 μg/mL, respectively. At this time, nigerose was added to each of the culture groups so as to make a concentration of 1.0 μg/mL and 10 μg/mL, where a nigerose-free control group was provided to each of the culture groups. The mononuclear cells were incubated at 37° C. for 24 hours in a 5% CO2 incubator. After completion of the incubation, apoptosis cells were fixed with an ssDNA Apoptosis ELISA kit (manufactured by Chemicon International, Inc.) which could specifically detect only the apoptosis cells, treated with a DNA-denaturing agent, then stained, and the absorbance (415 nm) was measured to quantify the degree of apoptosis.

[7] = nigerose 0 μg/mL, ConA 2.0 μg/mL
[8] = nigerose 0 μg/mL, PHA 5.0 μg/mL
[9] = nigerose 10 μg/mL, ConA 2.0 μg/mL
[10] = nigerose 1 μg/mL, ConA 2.0 μg/mL
[11] = nigerose 1 μg/mL, PHA 5.0 μg/mL
[12] = nigerose 10 μg/mL, PHA 5.0 μg/mL
[13] = nigerose 100 μg/mL, ConA 2.0 μg/mL
[14] = nigerose 100 μg/mL, PHA 5.0 μg/mL

C[C@@H]1C[C@H]2[C@@H]3CCC4=CC(=O)C=C[C@]4(C)[C@@]3(F)[C@@H](O)C[C@]2(C)[C@@]1(O)C(=O)CO [DEX, Dexamethasone]
IFN-γ ([1]; nigerose 0 μg/mL): 1.748 ± 0.307 ng/mL | Weight of spleen [2]: 78.3 ± 19.3 mg | Weight of thymus [2]: 28.8 ± 10.3 mg | IL-10 concentration in the culture supernatant ([3]; LPS): 0.021 ± 0.011 ng/mL | TNF-α concentration in the culture supernatant ([3]; LPS): 0.373 ± 0.062 ng/mL | IFN-γ concentration in the culture supernatant ([3]; PHA): 0.059 ± 0.027 ng/mL | IL-4 concentration in the culture supernatant ([3]; PHA): 2.1 ± 0.8 pg/mL | Absorbance (at 450 nm to 630 nm) [4, 7]: 0.286 ± 0.004 | Absorbance (at 450 nm to 630 nm) [4, 8]: 0.299 ± 0.004 | Amount of IFN-γ production [5, 7]: 0.106 ± 0.046 ng/mL | Amount of IFN-γ production [5, 8]: 0.119 ± 0.022 ng/mL

OC[C@H]1O[C@H](O[C@H]2[C@H](O)[C@@H](CO)OC(O)[C@@H]2O)[C@H](O)[C@@H](O)[C@@H]1O (some centres unmarked) [Nigerose, nigerose]
decrease of IL-12 and IFN-γ due to DEX ([1]; addition of nigerose, Tables 2 and 3): significantly suppressed concentration-dependently | IFN-γ ([1]; nigerose 0.1 μg/mL): 1.895 ± 0.816 ng/mL | IL-12 ([1]; nigerose 0.1 μg/mL): 0.093 ± 0.021 ng/mL | IFN-γ ([1]; nigerose 1 μg/mL): 1.866 ± 0.890 ng/mL | IL-12 ([1]; nigerose 1 μg/mL): 0.130 ± 0.042 ng/mL | IFN-γ ([1]; nigerose 10 μg/mL): 2.677 ± 1.000 ng/mL | IL-12 ([1]; nigerose 10 μg/mL): 0.171 ± 0.016 ng/mL | Absorbance (415 nm), degree of apoptosis ([6]; nigerose 1.0 μg/mL, ConA 2.0 μg/mL): 1.631 ± 0.175 | Absorbance (415 nm), degree of apoptosis ([6]; nigerose 1.0 μg/mL, OK-432 1.0 μg/mL): 1.549 ± 0.276 | Absorbance (415 nm), degree of apoptosis ([6]; nigerose 1.0 μg/mL, culture solution (no cell stimulatory factor)): 1.113 ± 0.053 | Absorbance (415 nm), degree of apoptosis [6, 9]: 1.372 ± 0.165 | Absorbance (415 nm), degree of apoptosis ([6]; nigerose 10 μg/mL, OK-432 1.0 μg/mL): 1.767 ± 0.203 | Absorbance (415 nm), degree of apoptosis ([6]; nigerose 10 μg/mL, culture solution (no cell stimulatory factor)): 1.134 ± 0.065 | effect on the apoptosis ([6]; nigerose-added group): suppressive effect | decrease in the growth of mononuclear cells due to DEX ([4]; addition of nigerose, ConA or PHA stimulation): significantly suppressed concentration-dependently | Absorbance (at 450 nm to 630 nm) [4, 10]: 0.289 ± 0.004 | Absorbance (at 450 nm to 630 nm) [4, 11]: 0.290 ± 0.002 | Absorbance (at 450 nm to 630 nm) [4, 9]: 0.307 ± 0.003 | Absorbance (at 450 nm to 630 nm) [4, 12]: 0.305 ± 0.009 | Absorbance (at 450 nm to 630 nm) [4, 13]: 0.319 ± 0.004 | Absorbance (at 450 nm to 630 nm) [4, 14]: 0.319 ± 0.007 | Amount of IFN-γ production [5, 10]: 0.075 ± 0.070 ng/mL | Amount of IFN-γ production [5, 11]: 0.144 ± 0.022 ng/mL | Amount of IFN-γ production [5, 9]: 0.136 ± 0.095 ng/mL | Amount of IFN-γ production [5, 12]: 0.219 ± 0.095 ng/mL | Amount of IFN-γ production [5, 13]: 0.365 ± 0.053 ng/mL | Amount of IFN-γ production [5, 14]: 0.320 ± 0.038 ng/mL
